The values below come from patent US12692262B2, “Substituted ureas as orexin receptor agonists” (Merck Sharp & Dohme LLC, priority 2020, dated 2026).

This assay concerns the target T1, human OX2R (Homo sapiens, UniProt O43614).
T1 construct: expressed in transfected cells; host or cells: CHO (Chinese hamster ovary) cells grown under G418 selection
T1 sequence (O43614 1-444): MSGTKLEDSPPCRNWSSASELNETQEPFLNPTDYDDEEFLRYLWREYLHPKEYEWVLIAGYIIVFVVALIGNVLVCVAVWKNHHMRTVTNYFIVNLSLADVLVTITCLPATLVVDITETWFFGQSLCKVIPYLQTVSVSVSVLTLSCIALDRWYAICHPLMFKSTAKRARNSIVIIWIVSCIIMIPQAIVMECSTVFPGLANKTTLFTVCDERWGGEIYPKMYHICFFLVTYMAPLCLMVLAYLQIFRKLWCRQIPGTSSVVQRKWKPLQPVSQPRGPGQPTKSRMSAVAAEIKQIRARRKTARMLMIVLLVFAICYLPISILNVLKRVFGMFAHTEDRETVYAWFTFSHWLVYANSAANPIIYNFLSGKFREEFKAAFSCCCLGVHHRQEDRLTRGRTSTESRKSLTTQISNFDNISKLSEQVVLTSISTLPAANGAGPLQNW
Kind of assay: IPOne (IP-1 accumulation) assay in CHO cells expressing human OX2R. It counts as cell-based. As to conditions: for pEC50: CHO cells expressing human OX2R, IP-One assay, 2 h incubation, four parameter logistic fit, read-out: OX2R Potency, EC50; for % of maximum agonist effect (relative to Orexin A): percent effect vs mean max effect of a reference compound at 1 uM (100% activity vs Orexin A), human OX2R. In outline:
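CHO cells stably expressing human OX2R, grown in Iscove's modified DMEM with 10% FBS; agonist-driven IP-1 accumulation via the Gαq pathway measured by HTRF (D2/AB-cryptate detection after lysis). EC50 taken as the inflection point of a four-parameter logistic fit.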

Each structure is given as a SMILES string. pEC50: −log10 of the molar value.

For orientation: pEC50 means −log10 of the EC50, conventionally taken in molar units. For `CCN(C(=O)N[C@@H](CCC(F)F)C1CC1)[C@@H](c1cc(-c2cn3cc(C)nc3c(OC)n2)c(OC)cn1)C(F)(F)F` [Example 6-7, 3-((S)-1-cyclopropyl-4,4-difluorobutyl)-1-ethyl-1-((S)-2,2,2-trifluoro-1-(5-methoxy-4-(8-methoxy-2-methylimidazo[1,2-a]pyrazin-6-yl)pyridin-2-yl)ethyl)urea], the pEC50 is 8.07 and the “% of maximum agonist effect (relative to Orexin A)” value worked out at 100.9%.

On to `CC[C@H](CCC(F)(F)F)NC(=O)N(CC)[C@H](C)c1cccc(-c2cc(OC(F)F)c3nccn3c2)c1` [Example 7-1, 1-((R)-1-(3-(8-(difluoromethoxy)imidazo[1,2-a]pyridin-6-yl)phenyl)ethyl)-1-ethyl-3-((R)-6,6,6-trifluorohexan-3-yl)urea], for which the pEC50 is 7.53 and the “% of maximum agonist effect (relative to Orexin A)” value was found to be 96.8%.

As to `CCC(CCC(F)(F)F)NC(=O)N(CC)[C@H](C)c1cccc(-c2cn3ccnc3cc2OC)c1` (stereo partly drawn) [Example 7-2, 1-ethyl-1-((R)-1-(3-(7-methoxyimidazo[1,2-a]pyridin-6-yl)phenyl)ethyl)-3-(6,6,6-trifluorohexan-3-yl)urea], the pEC50 is 6.40 and the “% of maximum agonist effect (relative to Orexin A)” value stood at 100.4%.

Turning to `CC[C@H](CCC(F)(F)F)NC(=O)N(CC)[C@H](C)c1cccc(-c2cc(C(F)F)c3nccn3c2)c1` [Example 7-3, 1-((R)-1-(3-(8-(difluoromethyl)imidazo[1,2-a]pyridin-6-yl)phenyl)ethyl)-1-ethyl-3-((R)-6,6,6-trifluorohexan-3-yl)urea], the pEC50 is 6.31 and the “% of maximum agonist effect (relative to Orexin A)” value came to 86.1%.

On to `CC[C@H](CCC(F)(F)F)NC(=O)N(CC)[C@H](C)c1cccc(-c2cc(COC)c3nccn3c2)c1` [Example 7-4, 1-ethyl-1-((R)-1-(3-(8-(methoxymethyl)imidazo[1,2-a]pyridin-6-yl)phenyl)ethyl)-3-((R)-6,6,6-trifluorohexan-3-yl)urea], for which the negative-log EC50 (pEC50) was 6.23 and the “% of maximum agonist effect (relative to Orexin A)” value is reported as 97.8%.

With `CC[C@H](CCC(F)(F)F)NC(=O)N(CC)[C@H](C)c1cccc(-c2cc(Cl)n3nccc3c2)c1` [Example 7-5, 1-((R)-1-(3-(7-chloropyrazolo[1,5-a]pyridin-5-yl)phenyl)ethyl)-1-ethyl-3-((R)-6,6,6-trifluorohexan-3-yl)urea], the pEC50 is 6.07 and the “% of maximum agonist effect (relative to Orexin A)” value stood at 93.7%.

As to `CCC(CCC(F)(F)F)NC(=O)N(CC)[C@H](C)c1cccc(-c2cn3ccnc3cc2COC)c1` (stereo partly drawn) [Example 7-6, 1-ethyl-1-((R)-1-(3-(7-(methoxymethyl)imidazo[1,2-a]pyridin-6-yl)phenyl)ethyl)-3-(6,6,6-trifluorohexan-3-yl)urea], the pEC50 was 5.85 and the “% of maximum agonist effect (relative to Orexin A)” value was determined as 100.8%.

On to `CC[C@H](CCC(F)(F)F)NC(=O)N(CC)[C@H](C)c1cccc(-c2cn3ccnc3c(SC)n2)c1` [Example 8-1, 1-ethyl-1-((R)-1-(3-(8-(methylthio)imidazo[1,2-a]pyrazin-6-yl)phenyl)ethyl)-3-((R)-6,6,6-trifluorohexan-3-yl)urea], for which the pEC50 was 6.68 and the “% of maximum agonist effect (relative to Orexin A)” value came to 96.1%.

Turning to `CCOc1cc(-c2cccc([C@@H](C)N(CC)C(=O)N[C@H](CC)CCC(F)(F)F)c2)cn2ccnc12` [Example 8-2, 1-((R)-1-(3-(8-ethoxyimidazo[1,2-a]pyridin-6-yl)phenyl)ethyl)-1-ethyl-3-((R)-6,6,6-trifluorohexan-3-yl)urea], the negative-log EC50 (pEC50) is 8.19 and the “% of maximum agonist effect (relative to Orexin A)” value stood at 97.7%.

Regarding `CC[C@H](CCC(F)(F)F)NC(=O)N(CC)[C@H](C)c1ccc(OC)c(-c2cc(C)c3nccn3c2)c1` [Example 8-3, 1-ethyl-1-((R)-1-(4-methoxy-3-(8-methylimidazo[1,2-a]pyridin-6-yl)phenyl)ethyl)-3-((R)-6,6,6-trifluorohexan-3-yl)urea], the pEC50 was 7.98 and the “% of maximum agonist effect (relative to Orexin A)” value is on record as 96.6%.

For the compound `CC[C@H](CCC(F)(F)F)NC(=O)N(CC)[C@H](C)c1ccc(OC)c(-c2cc(N)c3nccn3c2)c1` [Example 8-4, 1-((R)-1-(3-(8-aminoimidazo[1,2-a]pyridin-6-yl)-4-methoxyphenyl)ethyl)-1-ethyl-3-((R)-6,6,6-trifluorohexan-3-yl)urea], the pEC50 is 7.59 and the “% of maximum agonist effect (relative to Orexin A)” value is reported as 98.7%.

Take `CC[C@H](CCC(F)(F)F)NC(=O)N(CC)[C@H](C)c1ccc(OC)c(-c2cnc3[nH]ccc3c2)c1` [Example 8-5, 1-ethyl-1-((R)-1-(4-methoxy-3-(1H-pyrrolo[2,3-b]pyridin-5-yl)phenyl)ethyl)-3-((R)-6,6,6-trifluorohexan-3-yl)urea]: the pEC50 is 7.32 and the “% of maximum agonist effect (relative to Orexin A)” value is listed as 96.1%.

In the case of `CCC(CCC(F)(F)F)NC(=O)N(CC)[C@H](C)c1cccc(-c2cnc3nccn3c2)c1` (stereo partly drawn) [Example 8-7, 1-ethyl-1-((R)-1-(3-(imidazo[1,2-a]pyrimidin-6-yl)phenyl)ethyl)-3-(6,6,6-trifluorohexan-3-yl)urea], the pEC50 was 6.75 and the “% of maximum agonist effect (relative to Orexin A)” value came to 99.3%.

On to `CCC(CCC(F)(F)F)NC(=O)N(CC)[C@H](C)c1cccc(-c2cn3ccnc3cc2C)c1` (stereo partly drawn) [Example 8-8, 1-ethyl-1-((R)-1-(3-(7-methylimidazo[1,2-a]pyridin-6-yl)phenyl)ethyl)-3-(6,6,6-trifluorohexan-3-yl)urea], for which the pEC50 is 6.61 and the “% of maximum agonist effect (relative to Orexin A)” value was 102.1%.

Turning to `CCN(C(=O)N[C@@H](CCC(F)(F)F)C(F)(F)F)[C@H](C)c1cccc(-c2cc(OC)c3ncc(Cl)n3c2)c1` [Example 8-9, 1-((R)-1-(3-(3-chloro-8-methoxyimidazo[1,2-a]pyridin-6-yl)phenyl)ethyl)-1-ethyl-3-((S)-1,1,1,5,5,5-hexafluoropentan-2-yl)urea], the pEC50 was 9.15 and the “% of maximum agonist effect (relative to Orexin A)” value came out at 99.7%.

With `CCN(C(=O)N[C@@H](CCC(F)(F)F)C(F)(F)F)[C@H](C)c1cccc(-c2cc(OC)c3nc(Cl)cn3c2)c1` [Example 8-10, 1-((R)-1-(3-(2-chloro-8-methoxyimidazo[1,2-a]pyridin-6-yl)phenyl)ethyl)-1-ethyl-3-((S)-1,1,1,5,5,5-hexafluoropentan-2-yl)urea], the pEC50 is 8.82 and the “% of maximum agonist effect (relative to Orexin A)” value amounted to 99.6%.

With `CCN(C(=O)N[C@@H](CCC(F)(F)F)C(F)(F)F)[C@H](C)c1cccc(-c2cc(OC)c3ncnn3c2)c1` [Example 8-11, 1-ethyl-3-((S)-1,1,1,5,5,5-hexafluoropentan-2-yl)-1-((R)-1-(3-(8-methoxy-[1,2,4]triazolo[1,5-a]pyridin-6-yl)phenyl)ethyl)urea], the pEC50 is 8.70 and the “% of maximum agonist effect (relative to Orexin A)” value came out at 95.4%.

On to `CCN(C(=O)N[C@@H](CCC(F)(F)F)C(F)(F)F)[C@H](C)c1cccc(-c2ccc3ncc(N)n3c2)c1` [Example 8-12, 1-((R)-1-(3-(3-aminoimidazo[1,2-a]pyridin-6-yl)phenyl)ethyl)-1-ethyl-3-((S)-1,1,1,5,5,5-hexafluoropentan-2-yl)urea], for which the pEC50 was 7.76 and the “% of maximum agonist effect (relative to Orexin A)” value is given as 96.7%.

For `CCN(C(=O)N[C@@H](CCC(F)(F)F)C(F)(F)F)[C@H](C)c1cccc(-c2cc(OC)c3ncc(Cl)n3c2Cl)c1` [Example 8-14, 1-((R)-1-(3-(3,5-dichloro-8-methoxyimidazo[1,2-a]pyridin-6-yl)phenyl)ethyl)-1-ethyl-3-((S)-1,1,1,5,5,5-hexafluoropentan-2-yl)urea], the pEC50 is 6.96 and the “% of maximum agonist effect (relative to Orexin A)” value is 100.1%.

For `CC[C@H](CCC(F)(F)F)NC(=O)N(CC)[C@H](C)c1cccc(-c2cn3ccnc3cc2Cl)c1` [Example 8-15, 1-((R)-1-(3-(7-chloroimidazo[1,2-a]pyridin-6-yl)phenyl)ethyl)-1-ethyl-3-((R)-6,6,6-trifluorohexan-3-yl)urea], the pEC50 was 6.73 and the “% of maximum agonist effect (relative to Orexin A)” value is given as 94.1%.

As to `CCN(C(=O)N[C@@H](CCC(F)(F)F)C(F)(F)F)[C@@H](c1cc(-c2cc(OC)c3nccn3c2)c(OC)cn1)C(F)(F)F` [Example 9-1, 1-ethyl-3-((S)-1,1,1,5,5,5-hexafluoropentan-2-yl)-1-((S)-2,2,2-trifluoro-1-(5-methoxy-4-(8-methoxyimidazo[1,2-a]pyridin-6-yl)pyridin-2-yl)ethyl)urea], the pEC50 was 9.05 and the “% of maximum agonist effect (relative to Orexin A)” value is reported as 99.7%.

Consider `CCc1nc(-c2cc([C@H](N(CC)C(=O)N[C@@H](CCC(F)(F)F)C(F)(F)F)C(F)(F)F)ncc2OC)cn2ccnc12` [Example 9-2, 1-ethyl-1-((S)-1-(4-(8-ethylimidazo[1,2-a]pyrazin-6-yl)-5-methoxypyridin-2-yl)-2,2,2-trifluoroethyl)-3-((S)-1,1,1,5,5,5-hexafluoropentan-2-yl)urea], for which the pEC50 was 8.26 and the “% of maximum agonist effect (relative to Orexin A)” value amounted to 100.5%.
